According to ChEMBL document CHEMBL3792349, “Synthesis of novel diazaphosphinanes coumarin derivatives with promoted cytotoxic and anti-tyrosinase activities” (Bioorg Med Chem Lett, 2016):
Each block holds one molecule with its values, some of them ahead of it. Calls of active or inactive are those of the source. The calls are words filed in the database; no cut-off is given here.

Legend:
MCF7 = test: Cytotoxicity against human MCF7 cells assessed as inhibition of cell proliferation after 48 hrs by MTT assay; assay type: functional, cell-based
[1] = Cytotoxicity against human HCT116 cells assessed as inhibition of cell proliferation after 48 hrs by MTT assay; assay type: functional, cell-based, HCT-116
[2] = target: T1, Tyrosinase (Agaricus bisporus) (UniProt O42713); test: Inhibition of mushroom tyrosinase using L-tyrosine as substrate assessed as dopachrome formation at 100 uM measured for 10 mins by spectrophotometric method relative to control
T1 sequence (whole entry): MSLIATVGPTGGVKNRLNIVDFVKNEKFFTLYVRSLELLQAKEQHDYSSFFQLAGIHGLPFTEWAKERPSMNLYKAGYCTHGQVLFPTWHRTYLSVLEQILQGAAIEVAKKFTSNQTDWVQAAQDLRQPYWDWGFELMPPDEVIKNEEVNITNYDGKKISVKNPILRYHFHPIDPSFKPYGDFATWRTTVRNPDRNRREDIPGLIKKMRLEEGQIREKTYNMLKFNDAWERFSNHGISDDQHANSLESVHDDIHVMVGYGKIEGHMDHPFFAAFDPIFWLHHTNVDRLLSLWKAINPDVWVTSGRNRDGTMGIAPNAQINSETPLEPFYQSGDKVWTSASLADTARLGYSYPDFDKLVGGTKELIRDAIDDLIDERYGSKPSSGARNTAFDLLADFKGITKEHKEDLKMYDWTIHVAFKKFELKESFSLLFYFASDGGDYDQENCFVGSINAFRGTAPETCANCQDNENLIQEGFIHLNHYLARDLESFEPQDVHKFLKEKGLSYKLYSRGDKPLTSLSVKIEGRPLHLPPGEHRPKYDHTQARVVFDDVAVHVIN

Structure (SMILES): COc1ccc(P2(=S)NC(=S)C3=C(N2)Oc2c(c(=S)oc4ccccc24)C3c2ccccn2)cc1 (stereo not given)
IC50 (MCF7; Homo sapiens, MCF7, 48 h): > 100 µM
IC50 ([1]; Homo sapiens, HCT-116, 48 h): > 100 µM
inhibition [2]: 97.4%

Structure (SMILES): CCCCOc1ccc(C2C3=C(NP(=S)(c4ccc(OC)cc4)NC3=S)Oc3c2c(=S)oc2ccccc32)cc1 (single isomer, unassigned; diastereomer 1) [listing 1 of 2 here]
inhibition [2]: 55%

Structure (SMILES): COc1ccc(P2(=S)NC(=S)C3=C(N2)Oc2c(c(=S)oc4ccccc24)C3c2ccc(Cl)cc2)cc1 (single isomer, unassigned; diastereomer 1) [listing 1 of 2 here]
IC50 (MCF7; Homo sapiens, MCF7, 48 h): 32 µM
IC50 ([1]; Homo sapiens, HCT-116, 48 h): 32 µM

Structure (SMILES): CCCCOc1ccc(C2C3=C(NP(=S)(c4ccc(OC)cc4)NC3=S)Oc3c2c(=S)oc2ccccc32)cc1 (single isomer, unassigned; diastereomer 1) [listing 2 of 2 here]
IC50 (MCF7; mcf7): 37.2 µM
IC50 ([1]; hct-116): 25.2 µM

Structure (SMILES): COc1ccc(P2(=S)NC(=S)C3=C(N2)Oc2c(c(=S)oc4ccccc24)C3c2ccccc2)cc1 (single isomer, unassigned; diastereomer 2) [listing 1 of 2 here]
IC50 ([1]; hct-116): 68 µM

Structure (SMILES): COc1ccc(C2C3=C(NP(=S)(c4ccc(OC)cc4)NC3=S)Oc3c2c(=S)oc2ccccc32)cc1 (single isomer, unassigned; diastereomer 1) [listing 2 of 2 here]
IC50 (MCF7; Homo sapiens, MCF7, 48 h): > 100 µM
IC50 ([1]; Homo sapiens, HCT-116, 48 h): 49 µM

Structure (SMILES): COc1ccc(P2(=S)NC(=S)C3=C(N2)Oc2c(c(=S)oc4ccccc24)C3c2ccc(C)cc2)cc1 (single isomer, unassigned; diastereomer 2) [listing 1 of 2 here]
inhibition [2]: 61.8%

Structure (SMILES): COc1ccc(P2(=S)NC(=S)C3=C(N2)Oc2c(c(=S)oc4ccccc24)C3c2ccc(C)cc2)cc1 (single isomer, unassigned; diastereomer 1) [listing 2 of 2 here]
IC50 (MCF7; mcf7): > 100 µM
IC50 ([1]; Homo sapiens, HCT-116, 48 h): 48 µM

Structure (SMILES): COc1ccc(P2(=S)NC(=S)C3=C(N2)Oc2c(c(=S)oc4ccccc24)C3c2ccc(Cl)cc2)cc1 (single isomer, unassigned; diastereomer 2) [listing 1 of 2 here]
inhibition [2]: 16.1%

Structure (SMILES): COc1ccc(P2(=S)NC(=S)C3=C(N2)Oc2c(c(=S)oc4ccccc24)C3c2ccccc2)cc1 (single isomer, unassigned; diastereomer 1) [listing 2 of 2 here]
IC50 (MCF7; Homo sapiens, MCF7, 48 h): > 100 µM
IC50 ([1]; Homo sapiens, HCT-116, 48 h): 71 µM

Structure (SMILES): COc1ccc(P2(=S)NC(=S)C3=C(N2)Oc2c(c(=S)oc4ccccc24)C3c2ccc(Cl)cc2)cc1 (single isomer, unassigned; diastereomer 2) [listing 2 of 2 here]
IC50 (MCF7; mcf7): 33 µM
IC50 ([1]; hct-116): 30 µM

Structure (SMILES): COc1ccc(C2C3=C(NP(=S)(c4ccc(OC)cc4)NC3=S)Oc3c2c(=S)oc2ccccc32)cc1 (single isomer, unassigned; diastereomer 2) [listing 1 of 2 here]
inhibition [2]: 68.8%

Structure (SMILES): COc1ccc(P2(=S)NC(=S)C3=C(N2)Oc2c(c(=S)oc4ccccc24)C3c2ccc(OC)c(OC)c2)cc1 (single isomer, unassigned; diastereomer 1) [listing 2 of 2 here]
IC50 (MCF7; Homo sapiens, MCF7, 48 h): > 100 µM
IC50 ([1]; Homo sapiens, HCT-116, 48 h): > 100 µM

Structure (SMILES): COc1ccc(P2(=S)NC(=S)C3=C(N2)Oc2c(c(=S)oc4ccccc24)C3c2ccc(C)cc2)cc1 (single isomer, unassigned; diastereomer 2) [listing 2 of 2 here]
IC50 (MCF7; mcf7): 40 µM
IC50 ([1]; hct-116): 37 µM

Structure (SMILES): CCCCOc1ccc(C2C3=C(NP(=S)(c4ccc(OC)cc4)NC3=S)Oc3c2c(=S)oc2ccccc32)cc1 (single isomer, unassigned; diastereomer 2) [listing 2 of 2 here]
IC50 (MCF7; mcf7): > 100 µM
IC50 ([1]; hct-116): 56 µM

Structure (SMILES): COc1cccc2c1C(=O)c1c(O)c3c(c(O)c1C2=O)C[C@@](O)(C(=O)CO)C[C@@H]3O[C@H]1C[C@H](N)[C@H](O)[C@H](C)O1 [DOXORUBICIN]
IC50 (MCF7; Homo sapiens, MCF7, 48 h): 0.38 µM

Structure (SMILES): COc1ccc(C2C3=C(NP(=S)(c4ccc(OC)cc4)NC3=S)Oc3c2c(=S)oc2ccccc32)cc1 (single isomer, unassigned; diastereomer 2) [listing 2 of 2 here]
IC50 (MCF7; mcf7): 99 µM
IC50 ([1]; hct-116): 31.6 µM

The next lines start with results.

inhibition [2]: inactive
Structure (SMILES): COc1ccc(P2(=S)NC(=S)C3=C(N2)Oc2c(c(=S)oc4ccccc24)C3c2ccc(OC)c(OC)c2)cc1 (single isomer, unassigned; diastereomer 1) [listing 1 of 2 here]

inhibition [2]: inactive
Structure (SMILES): COc1ccc(P2(=S)NC(=S)C3=C(N2)Oc2c(c(=S)oc4ccccc24)C3c2ccccc2)cc1 (single isomer, unassigned; diastereomer 1) [listing 1 of 2 here]

inhibition [2]: inactive
Structure (SMILES): COc1ccc(C2C3=C(NP(=S)(c4ccc(OC)cc4)NC3=S)Oc3c2c(=S)oc2ccccc32)cc1 (single isomer, unassigned; diastereomer 1) [listing 1 of 2 here]

inhibition [2]: 58.5%
Structure (SMILES): COc1ccc(P2(=S)NC(=S)C3=C(N2)Oc2c(c(=S)oc4ccccc24)C3c2ccc(C)cc2)cc1 (single isomer, unassigned; diastereomer 1) [listing 1 of 2 here]

inhibition [2]: 88.7%
Structure (SMILES): CCCCOc1ccc(C2C3=C(NP(=S)(c4ccc(OC)cc4)NC3=S)Oc3c2c(=S)oc2ccccc32)cc1 (single isomer, unassigned; diastereomer 2) [listing 1 of 2 here]

inhibition [2]: inactive
Structure (SMILES): COc1ccc(P2(=S)NC(=S)C3=C(N2)Oc2c(c(=S)oc4ccccc24)C3c2ccccc2)cc1 (single isomer, unassigned; diastereomer 2) [listing 2 of 2 here]

inhibition [2]: 80.7%
Structure (SMILES): COc1ccc(P2(=S)NC(=S)C3=C(N2)Oc2c(c(=S)oc4ccccc24)C3c2ccc(Cl)cc2)cc1 (single isomer, unassigned; diastereomer 1) [listing 2 of 2 here]

inhibition [2]: 56.8%
Structure (SMILES): COc1ccc(P2(=S)NC(=S)C3=C(N2)Oc2c(c(=S)oc4ccccc24)C3c2ccc(OC)c(OC)c2)cc1 (single isomer, unassigned; diastereomer 2)

inhibition [2]: inactive
Structure (SMILES): COc1ccc(P2(=S)NC(=S)C3=C(N2)Oc2c(c(=S)oc4ccccc24)C3c2cccnc2)cc1 (stereo not given)
IC50 (MCF7; Homo sapiens, MCF7, 48 h): > 100 µM
IC50 ([1]; Homo sapiens, HCT-116, 48 h): > 100 µM
